Patent publication US20090069317A1, “Insecticidal Methods Using 3-Amino-1,2-Benzisothiazole Derivatives” (BASF SE, priority 2005, published 2009)

Key:
[1] = test system: Cotton Aphid (Aphis gossypii); experiment: Cotton aphid (Aphis gossypii) cotyledon dip test, mortality; format: in vivo; details: 120 h, cotton cotyledons dipped, mortality counts after 5 days, read-out: mortality in comparison with untreated controls
Description: B.1 Cotton Aphid (Aphis gossypii)
(§1) The active compounds were formulated in 50:50 acetone:water and 100 ppm Kinetic® surfactant.
Cotton plants at the cotyledon stage (one plant per pot) were infested by placing a heavily infested leaf from the main colony on top of each cotyledon. The aphids were allowed to transfer to the host plant overnight, and the leaf used to transfer the aphids was removed. The cotyledons were dipped in the test solution and allowed to dry. After 5 days, mortality counts were made.

[2] = test system: Green Peach Aphid (Myzus Persicae); experiment: Green peach aphid (Myzus persicae) pepper leaf dip test, mortality; format: in vivo; details: foliar, 120 h, pepper plant leaves dipped, aphid mortality after 5 days, read-out: mortality in comparison with untreated controls
Description: B.2 Green Peach Aphid (Myzus Persicae)
as §1
Pepper plants in the 2nd leaf-pair stage (variety ‘California Wonder’) were infested with approximately 40 laboratory-reared aphids by placing infested leaf sections on top of the test plants. The leaf sections were removed after 24 hr. The leaves of the intact plants were dipped into gradient solutions of the test compound and allowed to dry. Test plants were maintained under fluorescent light (24 hour photoperiod) at about 25° C. and 20-40% relative humidity. Aphid mortality on the treated plants, relative to mortality on check plants, was determined after 5 days.

## O=S1(=O)N=C(N2CCCC2)c2c(Cl)cccc21 [Compound 1]
[1]
  mortality at 300 ppm: > 86%

## CN(C)C1=NS(=O)(=O)c2cccc(Cl)c21 [Compound 2]
[1]
  mortality at 300 ppm: > 86%
[2]
  mortality at 300 ppm: > 86%

## C=CCN(CC=C)C1=NS(=O)(=O)c2cccc(Cl)c21 [Compound 10]
[1]
  mortality at 300 ppm: > 86%

## CCN(CC(F)(F)F)C1=NS(=O)(=O)c2cccc(Cl)c21 [Compound 13]
[1]
  mortality at 300 ppm: > 86%

## C#CC(C)N(C1=NS(=O)(=O)c2cccc(Cl)c21)C(C)C (centres unmarked) [Compound 14]
[1]
  mortality at 300 ppm: > 86%

## COC(OC)C(C)N(C)C1=NS(=O)(=O)c2cccc(Cl)c21 (centres unmarked) [Compound 16]
[1]
  mortality at 300 ppm: > 86%

## COC(CN(C)C1=NS(=O)(=O)c2cccc(Cl)c21)OC [Compound 17]
[1]
  mortality at 300 ppm: > 86%

## COC(C)CN(C)C1=NS(=O)(=O)c2cccc(Cl)c21 (centres unmarked) [Compound 18]
[1]
  mortality at 300 ppm: > 86%

## CCCN(C)C1=NS(=O)(=O)c2cccc(Cl)c21 [Compound 19]
[1]
  mortality at 300 ppm: > 86%
[2]
  mortality at 300 ppm: > 86%

## C=CCN(C)C1=NS(=O)(=O)c2cccc(Cl)c21 [Compound 20]
[1]
  mortality at 300 ppm: > 86%

## C#CCN(C)C1=NS(=O)(=O)c2cccc(Cl)c21 [Compound 21]
[1]
  mortality at 300 ppm: > 86%

## CC(C)CN(C)C1=NS(=O)(=O)c2cccc(Cl)c21 [Compound 22, (4-Chloro-1,1-dioxo-1H-1λ^6-benzo[d]isothiazol-3-yl)-isobutyl-methyl-amine]
[1]
  mortality at 300 ppm: > 86%

## COc1cccc2c1C(N1CCOCC1)=NS2(=O)=O [Compound 26]
[1]
  mortality at 300 ppm: > 86%

## CCN(CC)C1=NS(=O)(=O)c2cccc(OC)c21 [Compound 27]
[1]
  mortality at 300 ppm: > 86%
[2]
  mortality at 300 ppm: > 86%

## CCN(C1=NS(=O)(=O)c2cccc(OC)c21)C(C)C [Compound 28]
[1]
  mortality at 300 ppm: > 86%
[2]
  mortality at 300 ppm: > 86%

## C#CCN(C1=NS(=O)(=O)c2cccc(OC)c21)C(C)C [Compound 29]
[1]
  mortality at 300 ppm: > 86%

## CCN(C)C1=NS(=O)(=O)c2cccc(OC)c21 [Compound 30, Ethyl-(4-methoxy-1,1-dioxo-1H-1λ^6-benzo[d]isothiazol-3-yl)-methyl-amine]
[1]
  mortality at 300 ppm: > 86%
[2]
  mortality at 300 ppm: > 86%

## CCN(CC)C1=NS(=O)(=O)c2cccc(OC(F)F)c21 [Compound 31, (4-Difluoromethoxy-1,1-dioxo-1H-1λ^6-benzo[d]isothiazol-3-yl)-diethyl-amine]
[1]
  mortality at 300 ppm: > 86%
[2]
  mortality at 300 ppm: > 86%

## CN(C)C1=NS(=O)(=O)c2cccc(OC(F)F)c21 [Compound 32]
[1]
  mortality at 300 ppm: > 86%
[2]
  mortality at 300 ppm: > 86%

## CCN(C1=NS(=O)(=O)c2cccc(OC(F)F)c21)C(C)C [Compound 33]
[1]
  mortality at 300 ppm: > 86%
[2]
  mortality at 300 ppm: > 86%

## CCN(C)C1=NS(=O)(=O)c2cccc(OC(F)F)c21 [Compound 34]
[1]
  mortality at 300 ppm: > 86%
[2]
  mortality at 300 ppm: > 86%

## CC(C)N(C1=NS(=O)(=O)c2cccc(OC(F)F)c21)C1CC1 [Compound 35]
[1]
  mortality at 300 ppm: > 86%

## CN(CC#N)C1=NS(=O)(=O)c2cccc(OC(F)F)c21 [Compound 37]
[1]
  mortality at 300 ppm: > 86%
[2]
  mortality at 300 ppm: > 86%

## CCCN(C)C1=NS(=O)(=O)c2cccc(OC(F)F)c21 [Compound 38]
[1]
  mortality at 300 ppm: > 86%
[2]
  mortality at 300 ppm: > 86%

## C#CCN(C)C1=NS(=O)(=O)c2cccc(OC(F)F)c21 [Compound 39]
[1]
  mortality at 300 ppm: > 86%
[2]
  mortality at 300 ppm: > 86%

## C=CCN(C)C1=NS(=O)(=O)c2cccc(OC(F)F)c21 [Compound 40]
[1]
  mortality at 300 ppm: > 86%
[2]
  mortality at 300 ppm: > 86%

## CC(C)N(C)C1=NS(=O)(=O)c2cccc(OC(F)F)c21 [Compound 41]
[1]
  mortality at 300 ppm: > 86%
[2]
  mortality at 300 ppm: > 86%

## CC(C)CN(C)C1=NS(=O)(=O)c2cccc(OC(F)F)c21 [Compound 42]
[1]
  mortality at 300 ppm: > 86%
[2]
  mortality at 300 ppm: > 86%

## CC(C)CN(C)c1nsc2cccc(Cl)c12 [Compound 44]
[1]
  mortality at 300 ppm: > 86%

## C=CCN(C)c1nsc2cccc(Cl)c12 [Compound 45]
[1]
  mortality at 300 ppm: > 86%

## COC(CN(C)c1nsc2cccc(Cl)c12)OC [Compound 46]
[1]
  mortality at 300 ppm: > 86%

## COc1c(Br)ccc2snc(N(C)C)c12 [Compound 48, (5-Bromo-4-methoxy-benzo[d]isothiazol-3-yl)-dimethyl-amine]
[1]
  mortality at 300 ppm: > 86%
[2]
  mortality at 300 ppm: > 86%

## CCN(C)c1nsc2cccc(Cl)c12 [Compound 51]
[1]
  mortality at 300 ppm: > 86%
[2]
  mortality at 300 ppm: > 86%

## CC(C)N(C)C1=NS(=O)(=O)c2cccc(Cl)c21 [Compound 52]
[1]
  mortality at 300 ppm: > 86%

## CN(CC(F)(F)F)C1=NS(=O)(=O)c2cccc(OC(F)F)c21 [Compound 53]
[1]
  mortality at 300 ppm: > 86%
[2]
  mortality at 300 ppm: > 86%

## COc1cccc2c1C(N(C)C)=NS2(=O)=O [Compound 54]
[1]
  mortality at 300 ppm: > 86%

## COc1cccc2c1C(N(C(C)C)C1CC1)=NS2(=O)=O [Compound 55]
[1]
  mortality at 300 ppm: > 86%

## CN(CC(F)(F)F)C1=NS(=O)(=O)c2cccc(Cl)c21 [Compound 56]
[1]
  mortality at 300 ppm: > 86%

## COC(C)CN(C)c1nsc2cccc(Cl)c12 (centres unmarked) [Compound 57]
[1]
  mortality at 300 ppm: > 86%
[2]
  mortality at 300 ppm: > 86%

## CCN(CC)c1nsc2cccc(Cl)c12 [Compound 58]
[1]
  mortality at 300 ppm: > 86%
[2]
  mortality at 300 ppm: > 86%

## CCN(C)c1nsc2ccc(I)c(Cl)c12 [Compound 60]
[1]
  mortality at 300 ppm: > 86%

## CCN(CC)c1nsc2ccc(I)c(Cl)c12 [Compound 61]
[1]
  mortality at 300 ppm: > 86%

## CCCN(CC1CC1)C1=NS(=O)(=O)c2cccc(F)c21 [Compound 62]
[1]
  mortality at 300 ppm: > 86%
[2]
  mortality at 300 ppm: > 86%

## CN(C)C1=NS(=O)(=O)c2cccc(F)c21 [Compound 63]
[1]
  mortality at 300 ppm: > 86%

## CCN(C)C1=NS(=O)(=O)c2cccc(F)c21 [Compound 64]
[1]
  mortality at 300 ppm: > 86%
[2]
  mortality at 300 ppm: > 86%

## CCN(CC)C1=NS(=O)(=O)c2cccc(F)c21 [Compound 65]
[1]
  mortality at 300 ppm: > 86%

## C#CCN(C)C1=NS(=O)(=O)c2cccc(F)c21 [Compound 66]
[1]
  mortality at 300 ppm: > 86%

## CCCN(CCC)C1=NS(=O)(=O)c2cccc(F)c21 [Compound 67]
[1]
  mortality at 300 ppm: > 86%

## CCCN(C)C1=NS(=O)(=O)c2cccc(F)c21 [Compound 68]
[1]
  mortality at 300 ppm: > 86%

## C=CCN(C)C1=NS(=O)(=O)c2cccc(F)c21 [Compound 69]
[1]
  mortality at 300 ppm: > 86%

## CC(C)CN(C)C1=NS(=O)(=O)c2cccc(F)c21 [Compound 70]
[1]
  mortality at 300 ppm: > 86%

## CC(C)N(C1=NS(=O)(=O)c2cccc(F)c21)C1CC1 [Compound 71]
[1]
  mortality at 300 ppm: > 86%

## C#CCN(C1=NS(=O)(=O)c2cccc(F)c21)C(C)C [Compound 72]
[1]
  mortality at 300 ppm: > 86%

## CC(C)N(C)C1=NS(=O)(=O)c2cccc(F)c21 [Compound 73]
[1]
  mortality at 300 ppm: > 86%
[2]
  mortality at 300 ppm: > 86%

## CCN(CC)c1n[s+]([O-])c2cccc(Cl)c12 (centres unmarked) [Compound 74]
[1]
  mortality at 300 ppm: > 86%
[2]
  mortality at 300 ppm: > 86%

## CCN(CC)c1nsc2cccc(OC)c12 [Compound 76]
[1]
  mortality at 300 ppm: > 86%
[2]
  mortality at 300 ppm: > 86%

## CC(C)CN(C)c1n[s+]([O-])c2cccc(Cl)c12 (centres unmarked) [Compound 77]
[1]
  mortality at 300 ppm: > 86%

## CN(C)c1n[s+]([O-])c2cccc(Cl)c12 (centres unmarked) [Compound 78]
[1]
  mortality at 300 ppm: > 86%
[2]
  mortality at 300 ppm: > 86%

## CCN(C)c1nsc2cccc(F)c12 [Compound 79]
[1]
  mortality at 300 ppm: > 86%

## CCN(C)c1nsc2cccc(OC(F)F)c12 [Compound 80]
[1]
  mortality at 300 ppm: > 86%
[2]
  mortality at 300 ppm: > 86%

## CCN(C)c1nsc2cccc(OC)c12 [Compound 81]
[1]
  mortality at 300 ppm: > 86%
[2]
  mortality at 300 ppm: > 86%

## COc1cccc2snc(N(C)C(C)C)c12 [Compound 82]
[1]
  mortality at 300 ppm: > 86%
[2]
  mortality at 300 ppm: > 86%

## COc1cccc2snc(N(C)CC(C)C)c12 [Compound 83]
[1]
  mortality at 300 ppm: > 86%
[2]
  mortality at 300 ppm: > 86%

## COc1cccc2c1c(N(C)CC(C)C)n[s+]2[O-] (centres unmarked) [Compound 84]
[1]
  mortality at 300 ppm: > 86%

## CCN(C)c1n[s+]([O-])c2cccc(OC)c12 (centres unmarked) [Compound 85]
[1]
  mortality at 300 ppm: > 86%
[2]
  mortality at 300 ppm: > 86%

## CC(C)N(C)c1nsc2cccc(Cl)c12 [Compound 86]
[1]
  mortality at 300 ppm: > 86%
[2]
  mortality at 300 ppm: > 86%

## CCCN(C)c1nsc2cccc(Cl)c12 [Compound 87]
[1]
  mortality at 300 ppm: > 86%
[2]
  mortality at 300 ppm: > 86%

## COc1ccc(F)c2c1C(N(C)C)=NS2(=O)=O [Compound 90]
[1]
  mortality at 300 ppm: > 86%

## CCC(C)N(O)C1=NS(=O)(=O)c2cccc(Cl)c21 (centres unmarked) [Compound 99]
[1]
  mortality at 300 ppm: > 86%

## CON(C)C1=NS(=O)(=O)c2cccc(F)c21 [Compound 100]
[1]
  mortality at 300 ppm: > 86%

## CC(C)ON(C1=NS(=O)(=O)c2cccc(Cl)c21)C(C)C [Compound 101]
[1]
  mortality at 300 ppm: > 86%

## CC(C)ON(C)C1=NS(=O)(=O)c2cccc(Cl)c21 [Compound 102]
[1]
  mortality at 300 ppm: > 86%

## C#CCON(C)C1=NS(=O)(=O)c2cccc(Cl)c21 [Compound 103]
[1]
  mortality at 300 ppm: > 86%

## O=S1(=O)N=C(N(O)Cc2ccccc2)c2c(Cl)cccc21 [Compound 104]
[1]
  mortality at 300 ppm: > 86%

## C#CCON(C1=NS(=O)(=O)c2cccc(Cl)c21)C(C)C [Compound 105]
[1]
  mortality at 300 ppm: > 86%

## CCON(CC)C1=NS(=O)(=O)c2cccc(Cl)c21 [Compound 106]
[1]
  mortality at 300 ppm: > 86%

## C#CCN(OCC)C1=NS(=O)(=O)c2cccc(Cl)c21 [Compound 107]
[1]
  mortality at 300 ppm: > 86%
